In ChEMBL document CHEMBL3576858, “A natural product based DOS library of hybrid systems” (Eur J Med Chem, 2015):

Test system: HepG2
Assay: Cytotoxicity against human HepG2 cells at 100 uM after 24 hrs by MTT colorimetric assay
Type: cell-based
Conditions: hepg2, 24 h

SMILES | Activity [%]
CN(C)C[C@@H]1Cc2ccccc2[C@@]2(C)C[C@]3(C(=O)Nc4cc(N)ccc43)C(=O)N12 | -36
CN(C)C[C@@H]1Cc2ccccc2[C@@]2(C)C[C@@]3(C(=O)Nc4cc(N)ccc43)C(=O)N12 | -39
CN(C)C[C@@H]1Cc2ccccc2[C@@]2(C)C[C@]3(C(=O)Nc4ccccc43)C(=O)N12 | -29
CN(C)C[C@@H]1Cc2ccccc2[C@@]2(C)C[C@@]3(C(=O)Nc4ccccc43)C(=O)N12 | -4
C[C@]12CC3(CC=CC3)C(=O)N1[C@H](CO)Cc1ccccc12 | -155
C[C@]12CC3(CCCC3)C(=O)N1[C@H](CO)Cc1ccccc12 | 10
C[C@]12C[C@]3(C(=O)NCC3c3ccccc3)C(=O)N1[C@H](CO)Cc1ccccc12 (some centres undefined) | -41

Test system: Plasmodium falciparum
Assay: Antiplasmodial activity against Plasmodium falciparum 3D7 infected in O positive erythrocytes assessed as inhibition of parasite growth at 500 nM by FACS-based assay
Type: functional
Conditions: not given

SMILES | inhibition at 0.5 µM [%]
CN(C)C[C@@H]1Cc2ccccc2[C@@]2(C)C[C@]3(C(=O)Nc4cc(N)ccc43)C(=O)N12 | 0
CN(C)C[C@@H]1Cc2ccccc2[C@@]2(C)C[C@]3(C(=O)Nc4ccccc43)C(=O)N12 | 0
CN(C)C[C@@H]1Cc2ccccc2[C@@]2(C)C[C@@]3(C(=O)Nc4ccccc43)C(=O)N12 | 0.721

Test system: Plasmodium falciparum
Assay: Antiplasmodial activity against Plasmodium falciparum 3D7 infected in O positive erythrocytes assessed as inhibition of parasite growth at 30 uM by FACS-based assay
Type: functional
Conditions: not given

SMILES | inhibition at 30 µM [%]
CN(C)C[C@@H]1Cc2ccccc2[C@@]2(C)C[C@]3(C(=O)Nc4cc(N)ccc43)C(=O)N12 | 53.9
CN(C)C[C@@H]1Cc2ccccc2[C@@]2(C)C[C@]3(C(=O)Nc4ccccc43)C(=O)N12 | 48.1
CN(C)C[C@@H]1Cc2ccccc2[C@@]2(C)C[C@@]3(C(=O)Nc4ccccc43)C(=O)N12 | 52.4

Test system: Plasmodium falciparum
Assay: Antiplasmodial activity against Plasmodium falciparum 3D7 infected in O positive erythrocytes assessed as parasitemia at 50 uM after 48 hrs by FACS-based assay (reference value: 3.484%)
Type: functional
Conditions: not given

SMILES | Activity [%]
C[C@]12CC3(CC=CC3)C(=O)N1[C@H](CO)Cc1ccccc12 | 0.9149
C[C@]12CC3(CCCC3)C(=O)N1[C@H](CO)Cc1ccccc12 | 1.06

Test system: HepG2
Assay: Cytotoxicity against human HepG2 cells at 10 uM after 24 hrs by MTT colorimetric assay
Type: cell-based
Conditions: hepg2, 24 h

SMILES | Activity [%]
CN(C)C[C@@H]1Cc2ccccc2[C@@]2(C)C[C@]3(C(=O)Nc4cc(N)ccc43)C(=O)N12 | 5
CN(C)C[C@@H]1Cc2ccccc2[C@@]2(C)C[C@@]3(C(=O)Nc4cc(N)ccc43)C(=O)N12 | -6
CN(C)C[C@@H]1Cc2ccccc2[C@@]2(C)C[C@]3(C(=O)Nc4ccccc43)C(=O)N12 | 1
CN(C)C[C@@H]1Cc2ccccc2[C@@]2(C)C[C@@]3(C(=O)Nc4ccccc43)C(=O)N12 | -4
C[C@]12CC3(CC=CC3)C(=O)N1[C@H](CO)Cc1ccccc12 | -24
C[C@]12CC3(CCCC3)C(=O)N1[C@H](CO)Cc1ccccc12 | -15
C[C@]12C[C@]3(C(=O)NCC3c3ccccc3)C(=O)N1[C@H](CO)Cc1ccccc12 (some centres undefined) | -19

Test system: Plasmodium falciparum
Assay: Antiplasmodial activity against Plasmodium falciparum 3D7 infected in O positive erythrocytes assessed as inhibition of parasite growth at 40 uM by FACS-based assay
Type: functional
Conditions: not given

SMILES | inhibition at 40 µM [%]
CN(C)C[C@@H]1Cc2ccccc2[C@@]2(C)C[C@]3(C(=O)Nc4cc(N)ccc43)C(=O)N12 | 62.5
CN(C)C[C@@H]1Cc2ccccc2[C@@]2(C)C[C@]3(C(=O)Nc4ccccc43)C(=O)N12 | 51.9
CN(C)C[C@@H]1Cc2ccccc2[C@@]2(C)C[C@@]3(C(=O)Nc4ccccc43)C(=O)N12 | 59.1

Test system: Plasmodium falciparum
Assay: Antiplasmodial activity against Plasmodium falciparum 3D7 infected in O positive erythrocytes assessed as inhibition of parasite growth at 20 uM by FACS-based assay
Type: functional
Conditions: not given

SMILES | inhibition at 20 µM [%]
CN(C)C[C@@H]1Cc2ccccc2[C@@]2(C)C[C@]3(C(=O)Nc4cc(N)ccc43)C(=O)N12 | 34.6
CN(C)C[C@@H]1Cc2ccccc2[C@@]2(C)C[C@]3(C(=O)Nc4ccccc43)C(=O)N12 | 44.2
CN(C)C[C@@H]1Cc2ccccc2[C@@]2(C)C[C@@]3(C(=O)Nc4ccccc43)C(=O)N12 | 37

Test system: HepG2
Assay: Cytotoxicity against human HepG2 cells at 1 uM after 24 hrs by MTT colorimetric assay
Type: cell-based
Conditions: hepg2, 24 h

SMILES | Activity [%]
CN(C)C[C@@H]1Cc2ccccc2[C@@]2(C)C[C@]3(C(=O)Nc4cc(N)ccc43)C(=O)N12 | -23
CN(C)C[C@@H]1Cc2ccccc2[C@@]2(C)C[C@@]3(C(=O)Nc4cc(N)ccc43)C(=O)N12 | -52
CN(C)C[C@@H]1Cc2ccccc2[C@@]2(C)C[C@]3(C(=O)Nc4ccccc43)C(=O)N12 | -54
CN(C)C[C@@H]1Cc2ccccc2[C@@]2(C)C[C@@]3(C(=O)Nc4ccccc43)C(=O)N12 | -7
C[C@]12CC3(CC=CC3)C(=O)N1[C@H](CO)Cc1ccccc12 | -5
C[C@]12CC3(CCCC3)C(=O)N1[C@H](CO)Cc1ccccc12 | -63
C[C@]12C[C@]3(C(=O)NCC3c3ccccc3)C(=O)N1[C@H](CO)Cc1ccccc12 (some centres undefined) | -29

Test system: Plasmodium falciparum
Assay: Antiplasmodial activity against Plasmodium falciparum 3D7 infected in O positive erythrocytes assessed as parasitemia at 50 uM after 24 hrs by FACS-based assay (reference value: 1.670%)
Type: functional
Conditions: not given

SMILES | Activity [%]
C[C@]12CC3(CC=CC3)C(=O)N1[C@H](CO)Cc1ccccc12 | 0.7444
C[C@]12CC3(CCCC3)C(=O)N1[C@H](CO)Cc1ccccc12 | 1.024

Test system: Plasmodium falciparum
Assay: Antiplasmodial activity against Plasmodium falciparum 3D7 infected in O positive erythrocytes assessed as inhibition of parasite growth at 50 uM by FACS-based assay
Type: functional
Conditions: not given

SMILES | inhibition at 50 µM [%]
CN(C)C[C@@H]1Cc2ccccc2[C@@]2(C)C[C@]3(C(=O)Nc4cc(N)ccc43)C(=O)N12 | 82.3
CN(C)C[C@@H]1Cc2ccccc2[C@@]2(C)C[C@@]3(C(=O)Nc4cc(N)ccc43)C(=O)N12 | 10.1
CN(C)C[C@@H]1Cc2ccccc2[C@@]2(C)C[C@]3(C(=O)Nc4ccccc43)C(=O)N12 | 59.7
CN(C)C[C@@H]1Cc2ccccc2[C@@]2(C)C[C@@]3(C(=O)Nc4ccccc43)C(=O)N12 | 64.6
C[C@]12CC3(CC=CC3)C(=O)N1[C@H](CO)Cc1ccccc12 | 2.13
C[C@]12CC3(CCCC3)C(=O)N1[C@H](CO)Cc1ccccc12 | 1.53

Test system: Plasmodium falciparum
Assay: Antiplasmodial activity against Plasmodium falciparum 3D7 infected in O positive erythrocytes assessed as inhibition of parasite growth at 10 uM by FACS-based assay
Type: functional
Conditions: not given

SMILES | inhibition at 10 µM [%]
CN(C)C[C@@H]1Cc2ccccc2[C@@]2(C)C[C@]3(C(=O)Nc4cc(N)ccc43)C(=O)N12 | 6.54
CN(C)C[C@@H]1Cc2ccccc2[C@@]2(C)C[C@@]3(C(=O)Nc4cc(N)ccc43)C(=O)N12 | 5.38
CN(C)C[C@@H]1Cc2ccccc2[C@@]2(C)C[C@]3(C(=O)Nc4ccccc43)C(=O)N12 | 30.1
CN(C)C[C@@H]1Cc2ccccc2[C@@]2(C)C[C@@]3(C(=O)Nc4ccccc43)C(=O)N12 | 14.8
C[C@]12CC3(CC=CC3)C(=O)N1[C@H](CO)Cc1ccccc12 | 1.8
C[C@]12CC3(CCCC3)C(=O)N1[C@H](CO)Cc1ccccc12 | 0.971

Test system: Plasmodium falciparum
Assay: Antiplasmodial activity against Plasmodium falciparum 3D7 infected in O positive erythrocytes assessed as inhibition of parasite growth at 1 uM by FACS-based assay
Type: functional
Conditions: not given

SMILES | inhibition at 1 µM [%]
CN(C)C[C@@H]1Cc2ccccc2[C@@]2(C)C[C@]3(C(=O)Nc4cc(N)ccc43)C(=O)N12 | 2.88
CN(C)C[C@@H]1Cc2ccccc2[C@@]2(C)C[C@]3(C(=O)Nc4ccccc43)C(=O)N12 | 1.92
CN(C)C[C@@H]1Cc2ccccc2[C@@]2(C)C[C@@]3(C(=O)Nc4ccccc43)C(=O)N12 | 2.64

Test system: Plasmodium falciparum
Assay: Antiplasmodial activity against Plasmodium falciparum 3D7 infected in O positive erythrocytes assessed as parasitemia at 50 uM after 36 hrs by FACS-based assay (reference value: 1.617%)
Type: functional
Conditions: not given

SMILES | Activity [%]
C[C@]12CC3(CC=CC3)C(=O)N1[C@H](CO)Cc1ccccc12 | 1.161
C[C@]12CC3(CCCC3)C(=O)N1[C@H](CO)Cc1ccccc12 | 1.407
